Among the test systems are TK-10 renal; SF-268 CNS; COLO 205 colon; HL-60(TB) leukemia; HOP-92 NSCLC; UACC-257 melanoma; SK-MEL-2 melanoma; PC-3 prostate; HT29 colon; NCI-H226 lung.
Common to all, as to assay: inhibition of tumour cell growth, NCI panel, 48 h

The structures appear in SMILES notation. Values joined by “and” are separate entries in the source; they are usually repeats but may differ in a detail not shown here. Equal values may be shown once.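 Cultured in 96-well plates, cells were exposed to test compound for 48 hours across five concentrations. At the GI50, growth is halved. TGI denotes the concentration required for complete inhibition of growth.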

Consider `O=[N+]([O-])c1ccc(NC(c2ccccc2)c2ccc3cccnc3c2O)cc1` (stereo not drawn), for which the GI50 in the test with TK-10 renal is 0.932 µM; with SF-268 CNS, 0.378 µM; in the test on COLO 205 colon, 0.448 µM; with HL-60(TB) leukemia it was 0.334 µM; in the test with HOP-92 NSCLC, 0.234 µM; in the test with UACC-257 melanoma, 0.548 µM. For the same compound, the GI50 is 0.943 µM in the test on SK-MEL-2 melanoma, 0.586 µM in the test with PC-3 prostate, 0.487 µM in the test on HT29 colon and 0.505 µM in the test with NCI-H226 lung. For the same compound, the TGI was greater than 100 µM with TK-10 renal; greater than 100 µM with SF-268 CNS; greater than 100 µM in the test on COLO 205 colon; 1.47 µM in the test with HL-60(TB) leukemia; greater than 100 µM in the test with HOP-92 NSCLC; 6.67 µM with UACC-257 melanoma. The TGI in the test with SK-MEL-2 melanoma is greater than 100 µM; with PC-3 prostate, greater than 100 µM; in the test on HT29 colon, greater than 100 µM; in the test on NCI-H226 lung it was 9.19 µM.
In the case of `Cc1cc(C2CC(O)C(CO)O2)c(Br)cc1Br` (stereo not drawn), the GI50 was greater than 100 µM in the test with TK-10 renal; greater than 100 µM in the test on SF-268 CNS; greater than 100 µM in the test with COLO 205 colon; 73.4 µM in the test on HL-60(TB) leukemia; greater than 100 µM with HOP-92 NSCLC; greater than 100 µM with UACC-257 melanoma. The GI50 with SK-MEL-2 melanoma was greater than 100 µM; in the test with PC-3 prostate it was greater than 100 µM; in the test with HT29 colon it was 99.1 µM; in the test with NCI-H226 lung it was greater than 100 µM. Moreover, the TGI with TK-10 renal, in the test with SF-268 CNS, in the test with COLO 205 colon, in the test on HL-60(TB) leukemia, in the test on HOP-92 NSCLC and with UACC-257 melanoma was greater than 100 µM in each case. Besides, the TGI in the test on SK-MEL-2 melanoma, in the test on PC-3 prostate, in the test on HT29 colon and in the test on NCI-H226 lung was greater than 100 µM throughout.
In the case of `COc1cc2cc(C(=O)Nc3ccccc3)c(N)nc2cc1OC`, the GI50 in the test with TK-10 renal was 63.5 µM; with SF-268 CNS, 81.8 µM; in the test with COLO 205 colon, 34 µM; with HL-60(TB) leukemia, 43.6 µM; in the test on HOP-92 NSCLC, 8.29 µM; in the test on UACC-257 melanoma, 39.4 µM. For the same compound, the GI50 is 69.1 µM in the test on SK-MEL-2 melanoma, 31.2 µM in the test on PC-3 prostate, 51.5 µM in the test with HT29 colon and 54.4 µM in the test with NCI-H226 lung. The TGI was greater than 100 µM in the test with TK-10 renal; greater than 100 µM in the test on SF-268 CNS; greater than 100 µM in the test with COLO 205 colon; greater than 100 µM with HL-60(TB) leukemia; 90.1 µM with HOP-92 NSCLC; greater than 100 µM in the test with UACC-257 melanoma. The TGI with SK-MEL-2 melanoma, in the test with PC-3 prostate, in the test with HT29 colon and in the test with NCI-H226 lung was greater than 100 µM throughout.
With `COc1ccc(C2CC(=O)Nc3c2c(C)nn3-c2nc3ccccc3[nH]2)cc1OC` (stereo not drawn), the GI50 is 8.95 µM with TK-10 renal; 5.07 µM in the test on SF-268 CNS; 9.36 µM in the test on COLO 205 colon; 3.29 µM with HL-60(TB) leukemia; 6.01 µM with HOP-92 NSCLC; 6.46 µM in the test on UACC-257 melanoma. The GI50 with SK-MEL-2 melanoma was 4.85 µM; in the test with PC-3 prostate, 4.27 µM; with HT29 colon it was 5.66 µM; in the test with NCI-H226 lung it was 3.31 µM. The TGI with TK-10 renal was 93.5 µM; in the test with SF-268 CNS, greater than 69.5 µM; with COLO 205 colon, 40.7 µM; in the test with HL-60(TB) leukemia, 12.6 µM; in the test on HOP-92 NSCLC, 35.1 µM; in the test on UACC-257 melanoma it was 55.4 µM. Moreover, the TGI in the test with SK-MEL-2 melanoma worked out at 21.9 µM; in the test with PC-3 prostate it was 63.6 µM; with HT29 colon, 40 µM; in the test with NCI-H226 lung it was 14.1 µM.
Turning to `Cc1cc(C(=O)NOCCO)c(Nc2ccc(I)cc2F)n(C)c1=O`, the TGI in the test on TK-10 renal is greater than 100 µM; in the test with SF-268 CNS it was greater than 100 µM; with COLO 205 colon it was greater than 100 µM; in the test on HL-60(TB) leukemia, greater than 49.6 µM; in the test on HOP-92 NSCLC, 0.2 µM and 1.04 µM; in the test on UACC-257 melanoma it was 0.0128 µM and < 0.0197 µM. Further, the TGI in the test with PC-3 prostate, in the test with HT29 colon and in the test with NCI-H226 lung was greater than 100 µM in each case. For the same compound, the GI50 is greater than 100 µM in the test on SF-268 CNS; less than 0.01 µM with COLO 205 colon; 0.00173 µM and < 0.01 µM with HL-60(TB) leukemia; 0.00585 µM and 0.0235 µM in the test with HOP-92 NSCLC; 0.00186 µM and < 0.01 µM with UACC-257 melanoma; 0.00299 µM and < 0.01 µM with SK-MEL-2 melanoma. The GI50 in the test with PC-3 prostate is greater than 100 µM; in the test with HT29 colon it was 0.00193 µM and < 0.01 µM; in the test with NCI-H226 lung it was > 10 µM and 5.83 µM.
Regarding `CN(N=O)N1C(=O)SCC(c2ccccc2)(c2ccccc2)C1=O`, the TGI in the test on TK-10 renal, with SF-268 CNS, with COLO 205 colon, with HL-60(TB) leukemia, with HOP-92 NSCLC and in the test with UACC-257 melanoma was greater than 100 µM throughout. The TGI with SK-MEL-2 melanoma is 54.5 µM; in the test on PC-3 prostate, greater than 100 µM; with HT29 colon it was greater than 100 µM; in the test with NCI-H226 lung, 52.7 µM.
Regarding `CN1CCN(CCCn2c3c(sc4ncccc43)c(=O)n3nnc(-c4ccccc4)c23)CC1`, the GI50 is 3.15 µM in the test with TK-10 renal; 1.68 µM with SF-268 CNS; 4.33 µM with COLO 205 colon; 1.48 µM in the test with HL-60(TB) leukemia; 9.5 µM in the test on HOP-92 NSCLC; 5.81 µM with UACC-257 melanoma. Moreover, the GI50 in the test on SK-MEL-2 melanoma was 21.6 µM; in the test with PC-3 prostate, 1.61 µM; in the test with HT29 colon it was 1.82 µM; in the test on NCI-H226 lung, 15.1 µM. In addition, the TGI in the test on TK-10 renal was 10.7 µM; in the test with SF-268 CNS, 3.32 µM; in the test with COLO 205 colon, 9.07 µM; with HL-60(TB) leukemia, 3.47 µM; in the test on HOP-92 NSCLC, 28.4 µM; with UACC-257 melanoma, 10.5 µM. Moreover, the TGI in the test with SK-MEL-2 melanoma worked out at 39 µM; in the test with PC-3 prostate, 4.03 µM; in the test with HT29 colon, 3.88 µM; in the test on NCI-H226 lung it was 31.9 µM.
Consider `OCC1OC(n2cnc3cc(Cl)c(Cl)cc32)C(O)C1O` (stereo not drawn), for which the GI50 with TK-10 renal was 29.3 µM; in the test with SF-268 CNS it was 30.7 µM; with COLO 205 colon, 23.8 µM; in the test with HL-60(TB) leukemia, 20 µM; with HOP-92 NSCLC it was 35.2 µM; in the test on UACC-257 melanoma it was 18.7 µM. Moreover, the GI50 was 14.3 µM in the test with SK-MEL-2 melanoma, 44.5 µM with PC-3 prostate, 33.6 µM in the test with HT29 colon and 8.32 µM with NCI-H226 lung. In addition, the TGI is greater than 86.4 µM with TK-10 renal; greater than 87.9 µM in the test on SF-268 CNS; greater than 84.5 µM with COLO 205 colon; greater than 100 µM in the test with HL-60(TB) leukemia; 99 µM with HOP-92 NSCLC; 40.7 µM with UACC-257 melanoma. Besides, the TGI in the test on SK-MEL-2 melanoma was 35.9 µM; in the test with PC-3 prostate, greater than 100 µM; in the test with HT29 colon, greater than 100 µM; with NCI-H226 lung, 35.3 µM.
